Test results published in US5219884A, “Immunosuppressant” (Taito Co., Ltd., priority 1990, dated 1993).
≈ marks a conversion by molar mass, not a printed value. Where two headings read alike, the source gives them in different places.

Experiments:
[1] = tested on: human allogenic MLR (peripheral blood lymphocytes); experiment: human allogenic MLR-suppressive activity; assay type: cell-based
Procedure: The human allogenic MLR-suppressive activity was assayed as follows:
Human peripheral blood lymphocytes obtained by Ficoll-Paque density gradient centrifugation of normal human peripheral blood were suspended in the RPMI1640 medium supplemented with 10% FCS, placed in plastic dishes, and incubated at 37° C. in an atmosphere of 5% carbon dioxide for 2 hours. After termination of incubation, the supernatant after gentle pipetting was harvested and centrifuged (1000 rpm, for 5 minutes) to obtain plastic-nonadherent cells. The plastic-nonadherent cells were allowed to pass through a nylon-wool column to give nylon-nonadherent cells, and the concentration of the cell suspension was adjusted to 4×10^6 cells/ml by using the RPMI1640 culture medium supplemented with 10% FCS, and used as the responder cell suspension.
The plastic-adherent cells were removed from the plastic dish by vigorous pipetting after addition of phosphate buffered saline supplemented with 5% FCS and 0.02% disodium ethylenediamine-tetraacetic acid (EDTA). The plastic-adherent cells were treated with 40 μg/ml of mitomycin C at 37° C. for 60 minutes, washed three times, and suspended to the concentration of 4×10^6 cells/ml in the RPMI1640 culture medium supplemented with 10% FCS. The resultant suspension was used as the stimulator cell suspension. Fifty μl of the responder cell suspension from the donor A or C was mixed with 50 μl of the stimulator cell suspension from the donor B or D, to which 100 μl of the test substance was added, and cultured at 37° C. in the an atmosphere 5% carbon dioxide for 5 days.
After termination of the culture, 1.0 μCi/well of ^3 H-thymidine was added, and after 18 hours of culture, the cells were harvested by a cell-harvester. The radioactivity incorporated into the cells was measured by a liquid scintillation counter as the index of blastogenic response of lymphocytes in human allogenic MLR. The suppression of human allogenic MLR was evaluated by calculating the percent suppression by the following formula. [formula]

[2] = tested on: anti-sheep red blood cell antibody production in BALB/c mice; experiment: suppression of mouse anti-sheep red blood cell antibody production (PFC); assay type: in vivo; conditions: Experiment 2; 10 mg/kg/day i.p., 4 days
Procedure: (§1) Males 5- to 7-week-old BALB/c mice were immunized with sheep red blood cells (SRBC), and the spleen was resected three or four days later. By counting the plaque forming cells (PFC), suppressive effect on the production of the anti-sheep red blood cell antibody was examined as follows.
(§2) BALB/c mice were immunized with SRBC (1×10^7 cells/mouse, intravenous administration), and ISP-I in the Example 1 was administered intraperitoneally for 4 consecutive days from the day of immunization. Four days after immunization (the next day of the final administration), the spleen was resected and the anti-sheep red blood cell antibody-producing cells were determined by the direct plaque method. At the same time the body weight of the mouse, wet weight of the thymus and the spleen, and numbers of spleen cells were also determined.
as §2, with “(5×10^7” for “(1×10^7”, “the compound” for “ISP-I”, “5” for “1”, “resected,” for “resected”, “time,” for “time”

CCRF-CEM = experiment: in vitro; assay type: cell-based, human
HL60 = experiment: in vitro; assay type: cell-based, human
KB = experiment: in vitro; assay type: cell-based, human
PC-14 = experiment: in vitro; assay type: cell-based, human
U937 = experiment: in vitro; assay type: cell-based, human
[3] = body weight, wet weight of thymus and spleen, number of spleen cells in SRBC-immunized mice; assay type: in vivo, mouse; conditions: Experiment 2; 10 mg/kg/day
Procedure: as §1, §2
as §2, with “(5×10^7” for “(1×10^7”, “the compound” for “ISP-I”, “5” for “1”, “resected,” for “resected”, “time,” for “time”

IC50 ([1]; Lymphocyte, human allogenic MLR, read-out: 50%-inhibition concentration (IC50)): 0.35 ng/mL (≈ 0.867 nM)
Structure (SMILES): CCCCCCC(=O)CCCCCCCCCC(O)C(O)C(N)(CO)C(=O)O (stereo not drawn) [Example 5]
inhibition at 0.0001 µg/mL ([1]; Homo sapiens, Lymphocyte, donor A/donor B, 0.0001 μg/ml, read-out: Suppression): 14.4% | inhibition at 0.001 µg/mL ([1]; Homo sapiens, Lymphocyte, donor A/donor B, 0.001 μg/ml, read-out: Suppression): 42.8% | inhibition at 0.01 µg/mL ([1]; Homo sapiens, Lymphocyte, donor A/donor B, 0.01 μg/ml, read-out: Suppression): 59.4% | inhibition at 0.1 µg/mL ([1]; Homo sapiens, Lymphocyte, donor A/donor B, 0.1 μg/ml, read-out: Suppression): 87.1% | inhibition at 1 µg/mL ([1]; Homo sapiens, Lymphocyte, donor A/donor B, 1 μg/ml, read-out: Suppression): 85.4% | inhibition at 10 µg/mL ([1]; Homo sapiens, Lymphocyte, donor A/donor B, 10 μg/ml, read-out: Suppression): 99.8% | inhibition at 10 pg/mL ([1]; Homo sapiens, Lymphocyte, donor C/donor D, 0.00001 μg/ml, read-out: Suppression): 32.3% | inhibition at 0.0001 µg/mL ([1]; Homo sapiens, Lymphocyte, donor C/donor D, 0.0001 μg/ml, read-out: Suppression): 54.7% | inhibition at 0.001 µg/mL ([1]; Homo sapiens, Lymphocyte, donor C/donor D, 0.001 μg/ml, read-out: Suppression): 48.3% | inhibition at 0.01 µg/mL ([1]; Homo sapiens, Lymphocyte, donor C/donor D, 0.01 μg/ml, read-out: Suppression): 58.1% | inhibition at 0.1 µg/mL ([1]; Homo sapiens, Lymphocyte, donor C/donor D, 0.1 μg/ml, read-out: Suppression): 84.7% | inhibition at 1 µg/mL ([1]; Homo sapiens, Lymphocyte, donor C/donor D, 1 μg/ml, read-out: Suppression): 80.5% | 3H-thymidine uptake ([1]; donor A/donor B, 0.0001 μg/ml): 20789 cpm | 3H-thymidine uptake ([1]; donor A/donor B, 0.001 μg/ml): 14690 cpm | 3H-thymidine uptake ([1]; donor A/donor B, 0.01 μg/ml): 11130 cpm | 3H-thymidine uptake ([1]; donor A/donor B, 0.1 μg/ml): 5181 cpm | 3H-thymidine uptake ([1]; donor A/donor B, 1 μg/ml): 5548 cpm | 3H-thymidine uptake ([1]; donor A/donor B, 10 μg/ml): 2439 cpm | 3H-thymidine uptake ([1]; donor C/donor D, 0.00001 μg/ml): 11827 cpm | 3H-thymidine uptake ([1]; donor C/donor D, 0.0001 μg/ml): 7941 cpm | 3H-thymidine uptake ([1]; donor C/donor D, 0.001 μg/ml): 9057 cpm | 3H-thymidine uptake ([1]; donor C/donor D, 0.01 μg/ml): 7346 cpm | 3H-thymidine uptake ([1]; donor C/donor D, 0.1 μg/ml): 2746 cpm | 3H-thymidine uptake ([1]; donor C/donor D, 1 μg/ml): 3466 cpm | Number of PFC per 1 × 10^7 cell [2]: 5.6 ± 1.7 × 10^3 /1 × 10^7 cell | Number of PFC per spleen [2]: 12.9 ± 3.9 × 10^4 /spleen | Absorbancy (CCRF-CEM; 0.1 μg/ml): 0.485 | Absorbancy (CCRF-CEM; 1.0 μg/ml): 0.466 | Absorbancy (CCRF-CEM; 10.0 μg/ml): 0.394 | Absorbancy (HL60; 0.1 μg/ml): 0.593 | Absorbancy (HL60; 1.0 μg/ml): 0.657 | Absorbancy (HL60; 10.0 μg/ml): 0.590 | Absorbancy (KB; 0.1 μg/ml): 0.761 | Absorbancy (KB; 1.0 μg/ml): 0.734 | Absorbancy (KB; 10.0 μg/ml): 0.711 | Absorbancy (PC-14; 0.1 μg/ml): 0.420 | Absorbancy (PC-14; 1.0 μg/ml): 0.396 | Absorbancy (PC-14; 10.0 μg/ml): 0.352 | Absorbancy (U937; 0.1 μg/ml): 0.462 | Absorbancy (U937; 1.0 μg/ml): 0.485 | Body weight [3]: 24 ± 1 g | Number of spleen cells [3]: 2.3 ± 0.3 × 10^8 cell | Wet weight spleen [3]: 239 ± 40 mg | Wet weight thymus [3]: 52 ± 5 mg
